According to PubChem BioAssay AID1259407 (Chemical Carcinogenesis Research Information System (CCRIS), 2018):
Activity calls are given as the source filed them. How the calls were made is not given here.

Tested on: CCRIS mutagenicity, Ames/micronucleus/aberration tests
Assay: CCRIS mutagenicity studies

Measured: mutagenic call

O=Cc1ccccc1
inactive: End Point: IN VITRO CHROMOSOMAL ABERRATIONS, Test System: CHINESE HAMSTER OVARY CELLS, Metabolic Activation: NONE inactive; negative | End Point: IN VITRO CHROMOSOMAL ABERRATIONS, Test System: CHINESE HAMSTER OVARY CELLS, Metabolic Activation: RAT, LIVER, S-9, AROCLOR 1254 inactive; negative | End Point: In vitro chromosomal aberrations, Test System: Chinese hamster lung (CHL/IU) cells, Metabolic Activation: Rat, Liver, S9, Phenobarbital and 5,6-benzoflavone inactive; negative. weak positive response for ploidy is not dose related. | Test System: AMES SALMONELLA TYPHIMURIUM, Strain/Indicator: TA97, Metabolic Activation: NONE, Method: PREINCUBATION inactive; negative | Test System: AMES SALMONELLA TYPHIMURIUM, Strain/Indicator: TA97, Metabolic Activation: RAT, LIVER, S-9, AROCLOR 1254, Method: PREINCUBATION inactive; negative | Test System: AMES SALMONELLA TYPHIMURIUM, Strain/Indicator: TA98, Metabolic Activation: HAMSTER, LIVER, S-9, AROCLOR 1254 (10%), Method: PREINCUBATION inactive; negative | Test System: AMES SALMONELLA TYPHIMURIUM, Strain/Indicator: TA98, Metabolic Activation: NONE, Method: FLUCTUATION (MICROTITER) inactive; negative | Test System: AMES SALMONELLA TYPHIMURIUM, Strain/Indicator: TA98, Metabolic Activation: NONE, Method: PREINCUBATION inactive; negative | Test System: AMES SALMONELLA TYPHIMURIUM, Strain/Indicator: TA98, Metabolic Activation: RAT LIVER S-9, AROCLOR 1254, Method: FLUCTUATION (MICROTITER) inactive; negative | Test System: AMES SALMONELLA TYPHIMURIUM, Strain/Indicator: TA98, Metabolic Activation: RAT LIVER S-9, PHENOBARBITAL AND BETA-NAPHTHOFLAVONE, Method: PREINCUBATION inactive; negative | Test System: AMES SALMONELLA TYPHIMURIUM, Strain/Indicator: TA98, Metabolic Activation: RAT, LIVER, S-9, AROCLOR 1254 (10%), Method: PREINCUBATION inactive; negative | Test System: AMES SALMONELLA TYPHIMURIUM, Strain/Indicator: TA100, Metabolic Activation: HAMSTER, LIVER, S-9, AROCLOR 1254 (10%), Method: PREINCUBATION inactive; negative | Test System: AMES SALMONELLA TYPHIMURIUM, Strain/Indicator: TA100, Metabolic Activation: MOUSE, LIVER, S-9, AROCLOR 1254 (10%), Method: PREINCUBATION inactive; negative | Test System: AMES SALMONELLA TYPHIMURIUM, Strain/Indicator: TA100, Metabolic Activation: RAT LIVER S-9, AROCLOR 1254, Method: PREINCUBATION inactive; negative | Test System: AMES SALMONELLA TYPHIMURIUM, Strain/Indicator: TA100, Metabolic Activation: RAT LIVER S-9, PHENOBARBITAL AND BETA-NAPHTHOFLAVONE, Method: PREINCUBATION inactive; negative | Test System: AMES SALMONELLA TYPHIMURIUM, Strain/Indicator: TA100, Metabolic Activation: RAT, LIVER, S-9, AROCLOR 1254 (10%), Method: PREINCUBATION inactive; negative | Test System: AMES SALMONELLA TYPHIMURIUM, Strain/Indicator: TA102, Metabolic Activation: MOUSE, LIVER, S-9, AROCLOR 1254 (10%), Method: PREINCUBATION inactive; negative | Test System: AMES SALMONELLA TYPHIMURIUM, Strain/Indicator: TA102, Metabolic Activation: NONE, Method: PREINCUBATION inactive; negative | Test System: AMES SALMONELLA TYPHIMURIUM, Strain/Indicator: TA102, Metabolic Activation: RAT LIVER S-9, AROCLOR 1254, Method: PREINCUBATION inactive; negative | Test System: AMES SALMONELLA TYPHIMURIUM, Strain/Indicator: TA102, Metabolic Activation: RAT, LIVER, S-9, AROCLOR 1254 (10%), Method: PREINCUBATION inactive; negative | Test System: AMES SALMONELLA TYPHIMURIUM, Strain/Indicator: TA102, Metabolic Activation: RAT, LIVER, S-9, AROCLOR 1254, Method: PREINCUBATION inactive; negative | Test System: AMES SALMONELLA TYPHIMURIUM, Strain/Indicator: TA104, Metabolic Activation: MOUSE, LIVER, S-9, AROCLOR 1254 (10%), Method: PREINCUBATION inactive; negative | Test System: AMES SALMONELLA TYPHIMURIUM, Strain/Indicator: TA104, Metabolic Activation: NONE, Method: PREINCUBATION inactive; negative | Test System: AMES SALMONELLA TYPHIMURIUM, Strain/Indicator: TA104, Metabolic Activation: RAT LIVER S-9, AROCLOR 1254, Method: PREINCUBATION inactive; negative | Test System: AMES SALMONELLA TYPHIMURIUM, Strain/Indicator: TA104, Metabolic Activation: RAT, LIVER, S-9, AROCLOR 1254 (10%), Method: PREINCUBATION inactive; negative | Test System: AMES SALMONELLA TYPHIMURIUM, Strain/Indicator: TA1535, Metabolic Activation: HAMSTER, LIVER, S-9, AROCLOR 1254 (10%), Method: PREINCUBATION inactive; negative | Test System: AMES SALMONELLA TYPHIMURIUM, Strain/Indicator: TA1535, Metabolic Activation: NONE, Method: PREINCUBATION inactive; negative | Test System: AMES SALMONELLA TYPHIMURIUM, Strain/Indicator: TA1535, Metabolic Activation: RAT LIVER S-9, PHENOBARBITAL AND BETA-NAPHTHOFLAVONE, Method: PREINCUBATION inactive; negative | Test System: AMES SALMONELLA TYPHIMURIUM, Strain/Indicator: TA1535, Metabolic Activation: RAT, LIVER, S-9, AROCLOR 1254 (10%), Method: PREINCUBATION inactive; negative | Test System: AMES SALMONELLA TYPHIMURIUM, Strain/Indicator: TA1537, Metabolic Activation: HAMSTER, LIVER, S-9, AROCLOR 1254 (10%), Method: PREINCUBATION inactive; negative | Test System: AMES SALMONELLA TYPHIMURIUM, Strain/Indicator: TA1537, Metabolic Activation: NONE, Method: FLUCTUATION (MICROTITER) inactive; negative | Test System: AMES SALMONELLA TYPHIMURIUM, Strain/Indicator: TA1537, Metabolic Activation: NONE, Method: PREINCUBATION inactive; negative | Test System: AMES SALMONELLA TYPHIMURIUM, Strain/Indicator: TA1537, Metabolic Activation: RAT LIVER S-9, AROCLOR 1254, Method: FLUCTUATION (MICROTITER) inactive; negative | Test System: AMES SALMONELLA TYPHIMURIUM, Strain/Indicator: TA1537, Metabolic Activation: RAT LIVER S-9, PHENOBARBITAL AND BETA-NAPHTHOFLAVONE, Method: PREINCUBATION inactive; negative | Test System: AMES SALMONELLA TYPHIMURIUM, Strain/Indicator: TA1537, Metabolic Activation: RAT, LIVER, S-9, AROCLOR 1254 (10%), Method: PREINCUBATION inactive; negative | Test System: AMES SALMONELLA TYPHIMURIUM, Strain/Indicator: TA7001, Metabolic Activation: NONE, Method: FLUCTUATION (MICROTITER) inactive; negative | Test System: AMES SALMONELLA TYPHIMURIUM, Strain/Indicator: TA7001, Metabolic Activation: RAT LIVER S-9, AROCLOR 1254, Method: FLUCTUATION (MICROTITER) inactive; negative | Test System: AMES SALMONELLA TYPHIMURIUM, Strain/Indicator: TA7002, Metabolic Activation: NONE, Method: FLUCTUATION (MICROTITER) inactive; negative | Test System: AMES SALMONELLA TYPHIMURIUM, Strain/Indicator: TA7002, Metabolic Activation: RAT LIVER S-9, AROCLOR 1254, Method: FLUCTUATION (MICROTITER) inactive; negative | Test System: AMES SALMONELLA TYPHIMURIUM, Strain/Indicator: TA7003, Metabolic Activation: NONE, Method: FLUCTUATION (MICROTITER) inactive; negative | Test System: AMES SALMONELLA TYPHIMURIUM, Strain/Indicator: TA7003, Metabolic Activation: RAT LIVER S-9, AROCLOR 1254, Method: FLUCTUATION (MICROTITER) inactive; negative | Test System: AMES SALMONELLA TYPHIMURIUM, Strain/Indicator: TA7004, Metabolic Activation: NONE, Method: FLUCTUATION (MICROTITER) inactive; negative | Test System: AMES SALMONELLA TYPHIMURIUM, Strain/Indicator: TA7004, Metabolic Activation: RAT LIVER S-9, AROCLOR 1254, Method: FLUCTUATION (MICROTITER) inactive; negative | Test System: AMES SALMONELLA TYPHIMURIUM, Strain/Indicator: TA7005, Metabolic Activation: NONE, Method: FLUCTUATION (MICROTITER) inactive; negative | Test System: AMES SALMONELLA TYPHIMURIUM, Strain/Indicator: TA7006, Metabolic Activation: NONE, Method: FLUCTUATION (MICROTITER) inactive; negative | Test System: AMES SALMONELLA TYPHIMURIUM, Strain/Indicator: TA7006, Metabolic Activation: RAT LIVER S-9, AROCLOR 1254, Method: FLUCTUATION (MICROTITER) inactive; negative | Test System: E.COLI, Strain/Indicator: WP2UVRA/PKM101, Metabolic Activation: NONE, Method: PREINCUBATION inactive; negative | Test System: E.COLI, Strain/Indicator: WP2UVRA/PKM101, Metabolic Activation: RAT LIVER S-9, PHENOBARBITAL AND BETA-NAPHTHOFLAVONE, Method: PREINCUBATION inactive; negative
active: Test System: AMES SALMONELLA TYPHIMURIUM, Strain/Indicator: TA7005, Metabolic Activation: RAT LIVER S-9, AROCLOR 1254, Method: FLUCTUATION (MICROTITER) active; positive | Test System: MOUSE LYMPHOMA, Strain/Indicator: L5178Y (TK+/TK-), Metabolic Activation: NONE, Method: SUSPENSION/PLATE active; positive
